A short description of one data set: physchem. Conditions: thermodynamic from solid.
The conditions of data set [1]: CD water, 100 mg haloperidol per 250 ml, hard gelatine capsule.

Each structure is given as a SMILES string. ≈ marks a conversion by molar mass, not a printed value. Read-outs that look alike come from different tables or passages of the source.

In turn, `CN(C)C(=O)C(CCN1CCC(O)(c2ccc(Cl)cc2)CC1)(c1ccccc1)c1ccccc1` [Loperamide, loperamide] displayed a thermodynamic solubility at 72 h in “physchem” (water) of 72.3 µg/mL (≈ 152 µM).

On to `O=C(CCCN1CCC(O)(c2ccc(Cl)cc2)CC1)c1ccc(F)cc1` [Haloperidol, haloperidol], for which the Release of haloperidol in data set [1] (0 min) came out at 0.0%; in data set [1] (2 min) it was 0.1%; in data set [1] (4 min) it was 0.2%; in data set [1] (6 min), 0.3%; in data set [1] (8 min), 0.4%; in data set [1] (10 min), 0.6%. For the same compound, the Release of haloperidol is given as 1.5% in data set [1] (30 min), 1.8% in data set [1] (60 min) and 2.3% in data set [1] (120 min). Besides, the solubility (thermodynamic) at 72 h in “physchem” (simulated gastric fluid) was 600 µg/mL (≈ 1600 µM); in “physchem” (water), 2.6 µg/mL (≈ 6.92 µM).

As a reminder, the thermodynamic solubility is the concentration in solution at equilibrium with solid.
